Source: PubChem BioAssay (NCI)
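Assay format: 96-well plates, 48-hour exposure. Definition used: TGI = concentration required for complete inhibition of growth.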

Experiments:
Experiment in all cases: NCI tumour cell line growth inhibition, 48 h
786-0 renal = system: 786-0 renal
A498 renal = system: A498 renal
A549 NSCLC = system: A549 NSCLC
ACHN renal = system: ACHN renal
BT-549 breast = system: BT-549 breast
CAKI-1 renal = system: CAKI-1 renal
CCRF-CEM leukemia = system: CCRF-CEM leukemia
COLO 205 colon = system: COLO 205 colon
DU-145 prostate = system: DU-145 prostate
EKVX NSCLC = system: EKVX NSCLC
HCC-2998 colon = system: HCC-2998 colon
HCT-116 colon = system: HCT-116 colon
HCT-15 colon = system: HCT-15 colon
HL-60(TB) leukemia = system: HL-60(TB) leukemia
HOP-62 NSCLC = system: HOP-62 NSCLC
HOP-92 NSCLC = system: HOP-92 NSCLC
HS 578T breast = system: HS 578T breast
HT29 colon = system: HT29 colon
IGROV1 ovarian = system: IGROV1 ovarian
K-562 leukemia = system: K-562 leukemia
KM12 colon = system: KM12 colon
LOX IMVI melanoma = system: LOX IMVI melanoma
M14 melanoma = system: M14 melanoma
MCF7 breast = system: MCF7 breast
MDA-MB-231 breast = system: MDA-MB-231 breast
MDA-MB-435 = system: MDA-MB-435
MDA-N = system: MDA-N
MOLT-4 leukemia = system: MOLT-4 leukemia
NCI-H226 lung = system: NCI-H226 lung
NCI-H23 lung = system: NCI-H23 lung
NCI-H460 lung = system: NCI-H460 lung
NCI-H522 lung = system: NCI-H522 lung
NCI/ADR-RES ovarian = system: NCI/ADR-RES ovarian
OVCAR-3 ovarian = system: OVCAR-3 ovarian
OVCAR-4 ovarian = system: OVCAR-4 ovarian
OVCAR-5 ovarian = system: OVCAR-5 ovarian
OVCAR-8 ovarian = system: OVCAR-8 ovarian
PC-3 prostate = system: PC-3 prostate
RPMI-8226 leukemia = system: RPMI-8226 leukemia
SF-268 CNS = system: SF-268 CNS
SF-295 CNS = system: SF-295 CNS
SF-539 CNS = system: SF-539 CNS
SK-MEL-2 melanoma = system: SK-MEL-2 melanoma
SK-MEL-28 melanoma = system: SK-MEL-28 melanoma
SK-MEL-5 melanoma = system: SK-MEL-5 melanoma
SK-OV-3 ovarian = system: SK-OV-3 ovarian
SN12C renal = system: SN12C renal
SNB-19 CNS = system: SNB-19 CNS
SNB-75 CNS = system: SNB-75 CNS
SR leukemia = system: SR leukemia
SW-620 colon = system: SW-620 colon
T-47D breast = system: T-47D breast
TK-10 renal = system: TK-10 renal
U251 CNS = system: U251 CNS
UACC-257 melanoma = system: UACC-257 melanoma
UACC-62 melanoma = system: UACC-62 melanoma
UO-31 renal = system: UO-31 renal

Measured: TGI

CC(=O)OC1(C)C(=O)OC/C2=C/CN(C)CCC(OC(=O)C(O)(C(C)Cl)CC1C)C2=O (configuration not stated)
> 100 µM: all assays above
